Several values for one entry are separate records, joined by “and”; a condition that tells them apart may be missing. Equal entries are not always repeated.
Columns and labels:
[1] = Zn^2+ fluorescence titration, Job's plot, detection limit, binding constant, metal ion selectivity and TPEN reversibility in HEPES/DMSO
Description: (§1) The stock solution of NapBu-BPEA was prepared with DMSO of HPLC pure grade to make the concentration as 10 mM, and frozen after packing at −20° C. The sample solutions were diluted to the final concentration as 10 μM with 3 mL HEPES buffer (50 mM, 100 mM KNO3, 10% DMSO, pH 7.2) in quartz cuvettes with 1 cm path lengths. The fluorescent spectra were recorded upon the excitation of 450 nm.
(§2) The Zn^2+ titration spectra were recorded by adding in aliquots Zn^2+ solution from 0 to 15 μM into the NapBu-BPEA solution (10 μM). The detection limit of NapBu-BPEA was determined by collecting the fluorescence spectra of NapBu-BPEA for 6 times to obtain the background noise (a). The probe's fluorescent sensing selectivity of NapBu-BPEA was recorded after adding metal cation (1000 eq K^+, Na^+, Ca^2+, Mg^2+; 1 eq Cd^2+, Ni^2+, Cr^3+, Pb^2+, Al^3+, Co^2+, Fe^2+, Fe^3+, Ba^2+, Mn^2+) to the NapBu-BPEA solution. The fluorescence quantum yields were determined by using Ru(bpy)3^2+ (Φ=0.04) in DMSO/HEPES (v:v, 1:9)(λex=450 nm) as the reference. To determine binding constant, various amounts of Zn(NO3)2 (0˜9 mM) were added to NapBu-BPEA solution buffered with DMSO/HEPES (50 mM, pH 7.21, 100 mM KNO3) containing 10 mM EGTA. The pH stability was measured by recording the fluorescence spectra of NapBu-BPEA solution in the presence of Zn^2+ at different pH adjusted with KOH and HCl.

[2] = Spectroscopic study: fluorescence quantum yield and pH stability in DMSO/HEPES; type: physicochemical; conditions: probe bound to Zn^2+, pH titration
Description: as §1, §2

HeLa cells [3] = assay: Cell viability determination via WST (LDH release) assay; type: cell-based; conditions: 20 μM, 24 h
Description: The suspension of HeLa cells diluted with 50 μL DMEM was plated into 96-well plate. The inoculated cells were pre-cultured overnight in 96-well plate and replaced with a new 50 μL DMEM. 50 μL DMEM containing different concentrations of NapBu-BPEA was added and cultured in CO2 incubator at 37° C. for 24 h. After 10 μL lysis buffer was added to the high contrast wells, 30 min was cultured in the CO2 incubator at 37° C. After 100 μL working solution was added to each well, it was cultured for 0.5 h under dark and room temperature. After 50 μL stop solution was added to each well, the absorbance of 490 nm was determined immediately by a microplate reader (Thermomax, Molecular Devices).

HeLa cells [4] = assay: Photostability in cells under continuous laser stimulation; type: cell-based
Description: At the same time, because NapBu-BPEA's optical stability is an important factor in super-resolution imaging, a long-term continuous laser (300 s) stimulation of cells was carried out, capturing images every 20 s in order to monitor the photostability of NapBu-BPEA and MTDR in cells (FIG. 4(f), (g)). […] These characteristics enabled NapBu-BPEA to dynamically monitor cellular ultrastructures with long-term super-resolution imaging.

HeLa cells [5] = assay: SIM imaging of intracellular labile Zn^2+ on ZnPT loading and TPEN scavenging; type: cell-based
Description: In view of these promising results, a 1:2 mixture of ZnCl2 and pyrithione sodium salt, a cell-permeable Zn^2+ carrier (ZnPT) to transport exogenous Zn^2+ to cells, and a cell-permeable Zn^2+-chelating agent, TPEN, were used to evaluate the reversibility of fluorescence response to Zn^2+ in living cells according to methods described elsewhere. To determine the entry time of exogenous Zn^2+ into cells, NapBu-BPEA was incubated and an initial image was captured, after which 50 μM ZnPT (50 μM ZnCl2/100 μM pyrithione sodium salt) was used to replace the culture medium in dye-free and serum-free DMEM. […] The variance may be attributed to the difference in lipophilicity.
Next, NapBu-BPEA was investigated for its intracellular labile Zn^2+ imaging ability. Imaging experiments were performed in HeLa cells upon exogenous Zn^2+ loading via incubation with zinc pyrithione cmplex (ZnPT), a cell-permeable Zn^2+ carrier.
Intracellular labile Zn^2+ enhancement processes were tracked by recording SIM images every 2 min. […] While not desiring to be bound by theory, it is proposed that the butyl tail of NapBu-BPEA is responsible for the retained multiple organelle accumulation behavior of NapBu-BPEA upon Zn^2+ binding.

HeLa cells [6] = assay: SIM imaging of labile Zn^2+ during CCCP- or EBSS-induced autophagy; type: cell-based
Text: The SIM images were acquired using a Nikon N-SIM system. The blue imaging channel for Hoechst 33258 with emission bandwidth at 420-495 nm upon excitation at 405 nm, the green imaging channel for NapBu-BPEA with emission bandwidth at 500-550 nm upon excitation at 488 nm, the red imaging channel for ER-Tracker Red, LysoTracker Red and DAPRed with emission bandwidth at 570-640 nm upon excitation at 561 nm, the magenta imaging channel for MitoTracker Deep Red with emission bandwidth at 660-735 nm upon excitation at 640 nm were utilized. The imaging data analysis and thermal map construction were performed via analysis with ImageJ.
The intracellular Zn^2+ level in autophagy was imaged in HeLa cells. Prior to CCCP (10 μM, 24 h) or EBSS treatment ([…]), the cells were stained with DAPRed (1 μM, 30 min). The cells were finally stained by NapBu-BPEA (10 μM, 1 h) before SIM imaging.

ATG13 KO HeLa cells = assay: SIM imaging of labile Zn^2+ after CCCP in autophagy-deficient cells; type: cell-based
Description: (§3) Wild-type, FIP200 and ATG13 KO HeLa cell lines were gifted from Dr. Jun-Lin Guan's lab (University of Cincinnati). Cells were cultured in DMEM supplemented 10% FBS and 100 U/mL penicillin-streptomycin (Gibco) in 5% CO2 incubator at 37° C.
(§4) Considering that ATG13 and FIP200 are essential proteins for autophagy, to further elucidate the relationship between autophagy and changes in level of Zn^2+ two stable knockout (KO) cell lines were obtained (ATG13 KO HeLa cells and FIP200 KO HeLa cells) via CRISPR/Cas9 gene editing technology.

FIP200 KO HeLa cells = assay: as above; type: cell-based
Description: as §3, §4

[7] = CCCP treatment, regions selected by morphology

limit of detection for Zn^2+ ([1]; 3 σ/slope method)	Kd ([1]; HEPES 50 mM, 100 mM KNO3, 10% DMSO, 10 mM EGTA, pH 7.21, read-out: dissociation constant (Kd) of the complex between Zn^2+ and NapBu-BPEA)	reversibility of fluorescence response on TPEN addition ([1]; Zn^2+ 10 μM then TPEN 10 μM, five on-off cycles)	emission enhancement on Zn^2+ titration ([1]; at 540 nm, 10 μM probe)	pH range of stable fluorescence response [2]	photobleaching (HeLa cells [4]; within 300 s of laser stimulation)	Compound	fluorescence selectivity against other metal ions ([1]; 1000 eq K+, Na+, Ca2+, Mg2+, 1 eq other cations, response only to Cd^2+)	activity of lactate dehydrogenase released into the medium (HeLa cells [3])	cell viability (HeLa cells [3])	time until fluorescence intensity is balanced/stable after exogenous Zn^2+ (HeLa cells [5]; 50 μM ZnPT, images every 2 min)	reversibility of intracellular response (HeLa cells [5]; 100 μM TPEN added to cells)	green fluorescence intensity in mitophagic versus non-autophagic cells (HeLa cells [6]; CCCP 10 μM, 24 h, probe 10 μM, 1 h)	increase of Zn^2+ level (fluorescence intensity) in endoplasmic reticulum during autophagy (HeLa cells [6]; [7])	increase of Zn^2+ level (fluorescence intensity) in mitochondria during autophagy (HeLa cells [6]; [7])	fluorescence signal of CCCP-treated versus untreated cells (HeLa cells [6]; CCCP-induced mitophagy)	fluorescence intensity of EBSS-treated cells (HeLa cells [6]; EBSS starvation 24 h)	fluorescence intensity, CCCP-treated versus untreated (ATG13 KO HeLa cells)	fluorescence intensity, CCCP-treated versus untreated (FIP200 KO HeLa cells)	fluorescence intensity remaining (HeLa cells [4]; after 120 s of laser stimulation)
54.5 nM	4.98 nM	favorable reversible response to Zn^2+	3.6 fold	4-8 pH	negligible photobleaching	CCCCN1C(=O)c2cccc3c(NCCN(Cc4ccccn4)Cc4ccccn4)ccc(c23)C1=O [NapBu-BPEA, 2,4-(bis(pyridin-2-ylmethyl)aminoethyl)amino-N-n-butyl-1,8-naphthalimide]	specific fluorescence selectivity for Zn^2+	less than 20%	exceeded 80%	6 min and 4 min	respond reversibly to intracellular Zn^2+	~2.0 fold	1.55 fold	1.89 fold	improved significantly	decreased	no significant change in fluorescence intensity	no significant change in fluorescence intensity	–
–	–	–	–	–	–	C[N+]1=C(/C=C/C=C/C=C2\N(Cc3ccc(CCl)cc3)c3ccccc3C2(C)C)C(C)(C)c2ccccc21.[Cl-] [MTDR, reference compound]	–	–	–	–	–	–	–	–	–	–	–	–	less than 30%

Source: patent publication US12607637B2, “Super-resolution morphology-correlated detection of labile zinc” (University of Cincinnati, priority 2020, dated 2026)
